{
  "source": "patent US11300570B2",
  "about": "“Therapeutic and diagnostic methods for cancer” (Genentech, Inc., priority 2016, dated 2022)",
  "key": {"[1]": {"tested_on": "locally advanced or metastatic NSCLC", "assay": "OAK Phase III randomized trial, atezolizumab vs docetaxel, in 2L+ NSCLC, efficacy by tTMB", "type": "in vivo, human", "conditions": "for Median OS / Median PFS: 2L+ OAK", "description": "Patients were eligible for enrollment in the POPLAR study if they had locally advanced or metastatic (e.g., stage IIIB, stage IV, or recurrent) NSCLC; disease progression during or following treatment with a prior platinum-containing regimen for locally advanced, unresectable/inoperable, or metastatic NSCLC, or disease recurrence within 6 months of treatment with a platinum-based adjuvant/neoadjuvant regimen; measurable disease, as defined by RECIST v1.1; and an ECOG performance status of 0 or 1. Participants were randomized to receive either atezolizumab at a dose of 1200 mg intravenously every three weeks or docetaxel 75 mg per meter square (mg/m^2) intravenously every three weeks. Treatment with atezolizumab could be continued as long as participants were experiencing clinical benefit, i.e., in the absence of unacceptable toxicity or symptomatic deterioration attributed to disease progression. Pre-treatment tumor samples from patients in the Phase III OAK trial (Clinical Trial ID No.: NCT02008227) were also evaluated for tTMB. Patients were eligible for enrollment in the OAK study if they had locally advanced or metastatic (e.g., stage IIIB, stage IV, or recurrent) NSCLC; disease progression during or following treatment with a prior platinum-containing regimen for locally advanced, unresectable/inoperable, or metastatic NSCLC, or disease recurrence within 6 months of treatment with a platinum-based adjuvant/neoadjuvant regimen; measurable disease, as defined by RECIST v1.1; and an ECOG performance status of 0 or 1. Participants were randomized to receive either atezolizumab at a dose of 1200 mg intravenously every three weeks or docetaxel 75 mg per square meter (mg/m^2) intravenously every three weeks. Treatment with atezolizumab could be continued as long as participants were experiencing clinical benefit, i.e., in the absence of unacceptable toxicity or symptomatic deterioration attributed to disease progression.\nTo identify somatic mutations, tumor samples (e.g., archival tumor samples) were processed as described in Frampton et al. Nat. Biotechnol. 31:1023-31, 2013. Sequencing libraries were constructed to sequence and analyze samples. In addition to standard mutation processing, a mutation load estimation algorithm was applied that, based on the number of somatic mutations and/or rearrangements detected in Table 1 or Table 2, respectively, extrapolates to the exome or the genome as a whole. For purposes of mutation load estimation, all coding short variant alterations, base substitutions, and indels detected in the genes listed in Table 1 and Table 2 were counted. Further, all coding alterations (base substitutions and indels), including synonymous alterations, with the exception of known oncogenic driver mutations, in the genes listed in Table 1 and Table 2 were counted. However, numerous classes of detected alterations were not counted: non-coding alterations; alterations with known (occurring as known somatic alterations in the COSMIC database (Forbes et al. (2014) Nucl. Acids Res. 43:D805-11) and likely (truncations in tumor suppressor genes) functional status; known germline alterations in the dbSNP database (Sherry et al. (2001) Nucleic Acids Res. 29(1):308-11); germline alterations occurring with two or more counts in the ExAC database (Exome Aggregation Consortium (ExAC), Cambridge, Mass.); alterations that are predicted to be germline in the specimen being assessed; and alterations that are predicted to be germline in a cohort of >60,000 clinical specimens. Finally, to calculate the mutation load per megabase, the total number of mutations counted was divided by the coding region target territory of the test, which was 1.110 megabases (Mb) for the current version of the test. The average median coverage value for all samples was 490.\nThe BEP was defined as patients with at least one tTMB measurement from a baseline tumor sample. […]"}, "[2]": {"tested_on": "metastatic urothelial carcinoma (mUC)", "assay": "IMvigor210 study of atezolizumab in metastatic urothelial carcinoma, efficacy by tTMB", "type": "in vivo, human", "protocol": "To evaluate this idea, the association between tTMB and response to atezolizumab was evaluated in several distinct cancer types. As described in Example 2, high tTMB was associated with response to atezolizumab in 1 L and 2 L+ NSCLC, including at tTMB cutoffs of ≥16 mut/Mb and ≥20 mut/Mb. […] Tissue TMB was associated with improved ORR in 1 L and 2 L mUC patients at the ≥16 mut/Mb and ≥20 mut/Mb cutoffs in the IMvigor210 study (FIG. 17)."}, "[3]": {"conditions": "BEP (evaluable for TMB) (n = 174 atezolizumab, 186 docetaxel)"}, "[4]": {"conditions": "tTMB score <9 mut/Mb (n = 91 atezolizumab, 87 docetaxel)"}, "[5]": {"conditions": "tTMB score <16 mut/Mb (n = 135 atezolizumab, 136 docetaxel)"}, "[6]": {"conditions": "tTMB score ≥9 mut/Mb (n = 83 atezolizumab, 99 docetaxel)"}, "[7]": {"conditions": "tTMB score ≥16 mut/Mb (n = 39 atezolizumab, 50 docetaxel)"}},
  "data": [
    {"substance": "atezolizumab", "values": [
      {"measurement": "Median OS", "setting": "[1]; [3]", "value": 13.3, "unit": "months"},
      {"measurement": "Median PFS", "setting": "[1]; [3]", "value": 2.0, "unit": "months"},
      {"measurement": "Median OS", "setting": "[1]; ITT (n = 425 per arm)", "value": 13.8, "unit": "months"},
      {"measurement": "Median PFS", "setting": "[1]; ITT (n = 425 per arm)", "value": 2.0, "unit": "months"},
      {"measurement": "Median OS", "setting": "[1]; [4]", "value": 14.2, "unit": "months"},
      {"measurement": "Median PFS", "setting": "[1]; [4]", "value": 1.8, "unit": "months"},
      {"measurement": "Median OS", "setting": "[1]; [5]", "value": 12.7, "unit": "months"},
      {"measurement": "Median PFS", "setting": "[1]; [5]", "value": 1.7, "unit": "months"},
      {"measurement": "Median OS", "setting": "[1]; [6]", "value": 13.3, "unit": "months"},
      {"measurement": "Median PFS", "setting": "[1]; [6]", "value": 2.5, "unit": "months"},
      {"measurement": "Median OS", "setting": "[1]; [7]", "value": 18.7, "unit": "months"},
      {"measurement": "Median PFS", "setting": "[1]; [7]", "value": 5.5, "unit": "months"},
      {"measurement": "association of tissue TMB with efficacy", "setting": "[1]; OAK study", "value": "associated with improved efficacy"},
      {"measurement": "association of increased tTMB with ORR, PFS and OS", "setting": "[2]; 1L cisplatin-ineligible mUC, cohort 1 of IMvigor210", "value": "associated with increased ORR (FIG. 15A), longer PFS (FIG. 15B), and longer OS (FIG. 15C)"},
      {"measurement": "association of increased tTMB with ORR, PFS and OS", "setting": "[2]; 2L+ mUC, cohort 2 of IMvigor210", "value": "associated with increased ORR (FIG. 16A), longer PFS (FIG. 16B), and longer OS (FIG. 16C)"},
      {"measurement": "ORR", "setting": "[2]; IMvigor210 1L cisplatin-ineligible and 2L+ mUC, 6 patients both TMB-high (≥16 mut/Mb) and MSI-high", "value": 83, "unit": "%"}
    ]}
  ]
}
